The test system of data set [1] is Apis mellifera. To be noted: acute, mortality.
Data set [2] has as its system Canidae. To be noted: chronic; duration: 1 years; Dog Other; clinical signs.
The test system of data set [3] is Colinus virginianus. To be noted: reproduction developmental.
Data set [4] relates to Coturnix japonica. Particulars: acute; oral; mortality.
The subject of data set [5] is Daphnia magna. Particulars: chronic/long-term; duration: 21 days.
Data set [6] deals with Folsomia candida. To be noted: chronic/long-term; duration: 28 days.
Data set [7] deals with Oncorhynchus mykiss. Particulars: acute; duration: 96 hours; mortality.
The subject of data set [8] is Rattus norvegicus.
For data set [9], the system named is Tagia sp. To be noted: chronic/long-term; duration: 56 days.
In data set [10] the test system is Typhlodromus pyri. In words: LR50; higher = less toxic. Particulars: acute; mortality.

The values that follow come from EPA's ToxValDB 9.5 (doi:10.2903/j.efsa.2018.5465).

In brackets after ≈: the same amount, converted by molar mass. Where only a bound is given, the exact number is not on record here.

What is called NOAEL is the highest dose or exposure tested at which no adverse effect was seen. In general, LC50 refers to the concentration lethal to half of the exposed cells or organisms.

Regarding `CCN(CC)C(=O)[C@@H](C)Oc1cccc2ccccc12` [(R)-N,N-Diethyl-2-(1-naphthyloxy)propionamide], the LD50 in data set [1] (dermal) was greater than 110 µg/piece; in data set [1] (oral, unspecified) it was greater than 110 µg/piece; in data set [4] it was greater than 2000 mg/kg-day; in data set [8] (acute, oral, mortality) it was greater than 2000 mg/kg-day. In addition, the NOAEL in [2] amounted to 50 mg/kg-day; in data set [3], 309 mg/kg-day; in data set [8] (chronic, duration: 2 years, body weight), 30 mg/kg-day; in data set [8] (subchronic, duration: 90 days, oral, hematological), 46 mg/kg-day. In addition, the NOEC in [5] came to 0.1 mg/L; in data set [6] it was 47.7 mg/kg; in [9] it was 17.1 mg/kg. The compound also came in with an LC50 in data set [7] of 11.2 µg/mL (≈ 41.3 µM). The compound further showed an LR50 in [10] greater than 4140 g/ha.
